Measured values taken from patent US20110151474A1, “METHOD OF ESTIMATING THE RISK OF EXPRESSION OF ADVERSE DRUG REACTION CAUSED BY THE ADMINISTRATION OF A COMPOUND, WHICH IS EITHER METABOLIZED PER SE BY UGT1A1 ENZYME OR WHOSE METABOLIC INTERMEDIATE IS METABOLIZED BY THE ENZYME” (DAIICHI PURE CHEMICALS CO ., LTD, priority 2000, published 2011).

Tests used:
[1] = out of 1245 patients during period of clinical trials; cited from earlier work
[2] = Retrospective review of adverse drug reaction (leukopenia, diarrhea, severe toxicity) in patients given irinotecan chemotherapy, correlated with UGT1A1 genotype; assay type: in vivo, Japanese patients; details: for odds ratio of severe toxicity: logistic regression
Excerpt: The subjects were Japanese patients who had received irinotecan administration in their chemotherapies from July 1994 to June 1999. For confirming the security of the patients, each patient was primarily ensured to have an adequate bone marrow function before the use of irinotecan: a leukocyte count of 3×10^9/liter or more, and a platelet count of 100×10^9/Iiter or more. In addition, the patients who had evidence of watery diarrhea, paralytic ileus, pulmonary interstitial pneumonia or fibrosis, massive ascites or pleural effusion, apparent jaundice, or anamnesis of hypersensitivity to irinotecan were excluded from the irinotecan use. As a result, 118 patients were used as a subject of this Example.
For confirming the adaptability to irinotecan, the complete blood count, platelet count and serum chemistry were assessed at least once a week. And bilirubin levels were always measured.
We retrospectively reviewed the clinical records including patients' characteristics (e.g. age, gender and the like), the dosage and schedule of irinotecan administration, the record of use of other drugs or radiotherapy, and observed adverse drug reaction caused by irinotecan (infusion). We counted the number of days when the patients received granulocyte colony stimulating factors (G-CSFs) or loperamide hydrochloride, the latter of which is commonly prescribed for irinotecan-induced diarrhea in Japan. Prophylactic administration of G-CSF prevented the apparent onset of neutropenia. Since the dose limiting toxicity of irinotecan is known to result in leukopenia and diarrhea, we defined as “severe toxicity” as leukopenia of grade 4 (0.9×10^9/liter) and the diarrhea of grade 3 or worse (grade 3 is for the watery diarrhea for 5 days or more; grade 4, the diarrhea with hemorrhagic or dehydration as classified in accordance with the Japan Society for Cancer Therapy criteria). No other adverse drug reactions were included in this example because they would be influenced by miscellaneous patients' backgrounds. The Serum total bilirubin levels were recorded with the scores just prior to irinotecan administration along with the highest of those after initiation of the therapy.
Blood was sampled from each patient (118 samples) and their genotypes were analyzed after irinotecan administration in each patient. […]
We analyzed the following variant sequences for each genomic DNA (see Fig. I): a two-extra-nucleotide (TA) insertion within the TATA box resulting in the sequence (TA)7TAA at positions −39 to −53, whose type is referred to as UGT1A1 *28; (Monaghan, G., Ryan, M., Seddon, R., Hume, R., and Burchell, B., Lancet, 347: 578-581, 1996, Bosma, P. J. et al., N. Engi. J. Med., 333: 1171-1175, 1995); a transition at codon 71 in exon I (from (G) to (A) at +211 locating in the downstream region from the initial site of the transcription) that changes glycine to arginine (represented by G71 R, whose type is referred to as UGT1A1*6); a transversion at codon 229 in exon I that alters proline to glutamine (represented by P229Q, whose type is referred to as UGT1A1*27); a trarisversion at codon 367 from (C) to (G) at position +1099 in exon 4 that converts arginine to glycine (represented by R367G, whose type is referred to as UGT1A1*29); and a transversion (+1456, T to G) at codon 486 in exon 5 that transforms tyrosine (Y) into aspartic acid (D) (represented by Y486D, whose type is referred to as UGTIA1*7). […]

CCc1c2c(nc3ccc(OC(=O)N4CCC(N5CCCCC5)CC4)cc13)-c1cc3c(c(=O)n1C2)COC(=O)[C@]3(O)CC [irinotecan]
deaths attributed to adverse drug reactions [1]: 55 patients
odds ratio of severe toxicity ([2]; UGT1A1*6, 95% CI 0.15-1.61, P>0.2): 0.55
patients who experienced severe toxicity ([2]; all patients heterozygous for UGT1A1*27): 3 patients
odds ratio of severe toxicity ([2]; genotype heterozygous or homozygous for UGT1A1*28, 95% CI 1.98-13.96, P<0.001): 5.21
patients who experienced severe toxicity (leukopenia grade 4 and/or diarrhea grade 3 or worse) ([2]; of 118 patients given irinotecan, 92 did not): 26 patients
increase of severe toxicity of irinotecan ([2]; possession of UGT1A1*28, multiple logistic regression with gender and chemotherapy regimen (FIG. 5)): 7 fold
